Experimental data as given in publication PMC8126888 (RSC Medicinal Chemistry, 2020).
Read-outs that look alike come from different tables or passages of the source.

Key:
[1] = test system: primary peritoneal mouse macrophages (PMM); assay: cells; settings: Macrophage
in vitro = settings: human
[2] = test system: Leishmania infantum MHOM/MA(BE)/67/ITMAP263 intracellular amastigotes; assay: microbe, parasite or virus in culture; settings: Macrophage, in Mus musculus
[3] = test system: Trypanosoma cruzi, Tulahuen CL2, beta-galactosidase strain; assay: microbe, parasite or virus in culture
physchem = settings: HPLC, Ascentis Express RP Amide column
[4] = read-out: L. Inf. pIC50, from L. infantum intracellular amastigote IC50 (converted)
[5] = read-out: L. infantum MHOM/MA(BE)/67/ITMAP263 intracellular amastigotes IC50, intracellular amastigotes
[6] = MRC5, read-out: T. cruzi Tulahuen C4 (LacZ) IC50
[7] = read-out: L. Inf. pIC50 (converted)
[8] = read-out: L. infantum MHOM/MA(BE)/67/ITMAP263 intracellular amastigotes IC50
[9] = read-out: PMM pIC50 (converted)
[10] = read-out: L. inf. pIC50, intracellular amastigotes in PMM (converted), geometric mean of a minimum of two experiments ± standard error
[11] = read-out: L. infantum MHOM/MA(BE)/67/ITMAP263 intracellular amastigotes IC50 (uM), intracellular amastigotes
[12] = MRC5, read-out: T. cruzi Tulahuen C4 (LacZ) IC50 (uM)

Structure (SMILES) | IC50 ([1]; read-out: PMM IC50) [µM] | CC50 at 3 days (in vitro) [µM] | IC50 [2, 4] [µM] | IC50 [3, 6] [µM] | IC50 [2, 7] [µM] | IC50 [2, 8] [µM] | also measured
CN(C)CCN(Cc1ccccc1)S(=O)(=O)c1ccccc1OC(F)(F)F [DNDI0003367256] | 45.2 | 53.4 | 8.71 | 32 |  |  | IC50 [2, 5]: 8.64 µM
COc1ccc(C)cc1S(=O)(=O)N(CC(=O)O)Cc1ccccc1 [DNDI0003363399] | > 55.4 | > 55.4 |  | > 55.4 | > 55.4 | > 55.4 | 
COc1ncc(C#N)cc1S(=O)(=O)N(Cc1ccc(F)cc1)Cc1ccc(F)cc1 [DNDI0003369123] | > 64 | > 64 | 7.59 | 8.4 |  |  | chromatographic logD (physchem; pH 7.4, eLogD, experimental): 4.5; IC50 [2, 5]: 7.6 µM
O=S(=O)(c1cc(F)ccc1F)N(Cc1ccccc1)CC(O)c1ccc(F)cc1 (stereo not shown) [DNDI0003371159] | > 64 | 18.7 | 33.1 | 7.27 |  |  | IC50 [2, 5]: 33.1 µM
COc1ccc(Cl)cc1S(=O)(=O)N(CC(=O)N1CCOCC1)Cc1ccccc1 [SCYX0001379806] | > 32 | > 32 |  | > 32 | > 32 | > 32 | 
O=S(=O)(c1cc(F)ccc1F)N(Cc1ccc(F)cc1)Cc1ccc(F)cc1 [DNDI0003371158] | > 64 | > 64 | > 64 | > 64 |  |  | IC50 [2, 5]: > 64 µM
COc1ccc(C)cc1S(=O)(=O)N(CC(=O)NCc1ccc(Cl)cc1)Cc1ccccc1 [DNDI0003363396] | > 55.4 | > 55.4 |  | 6.02 | 25.7 | 25.7 | 
COc1ccc(OC)c(S(=O)(=O)N(Cc2ccc(F)cc2)Cc2ccc(F)cc2)c1 [Compound 32] |  |  |  |  |  |  | IC50 [1, 9]: > 64.6 µM; chromatographic logD (physchem; pH 7.4, elog D, HPLC measured log D, pH 7.4): 4.7; IC50 [2, 10]: 0.537 µM
COc1ccc(OC)c(S(=O)(=O)n2cc(C)nc2-c2ccccc2)c1 [DNDI0003363402] | > 55.4 | > 55.4 |  | > 55.4 | > 55.4 | > 55.4 | 
COc1ccc(OC)c(S(=O)(=O)N2CCc3ccccc3C2)c1 [DNDI0003363398] | > 55.4 | > 55.4 |  | > 55.4 | > 55.4 | > 55.4 | 
O=C(COc1ccc(Cl)cc1S(=O)(=O)NCc1ccccc1)N1CCOCC1 [DNDI0003363401] | > 55.4 | > 55.4 |  | > 55.4 | > 55.4 | > 55.4 | 
O=C(NC(Cn1ccnc1)c1ccccc1)c1ccc(-n2cnnn2)cc1 (stereo not shown) [DNDI0003363392] | > 55.4 | > 55.4 |  | 9 | > 49.4 | > 49.4 | 
COc1ccc(S(=O)(=O)N(CC(=O)NC2CC2)Cc2ccccc2)cc1C [DNDI0003363400] | > 55.4 | > 55.4 |  | > 55.4 | > 49.4 | > 49.4 | 
CC[C@]1(O)C[C@@H]2CN(CCc3c([nH]c4ccccc34)[C@@](C(=O)OC)(c3cc4c(cc3OC)N(C)[C@H]3[C@@](O)(C(=O)OC)[C@H](OC(C)=O)[C@]5(CC)C=CCN6CC[C@]43[C@@H]65)C2)C1 [vinblastine, reference compound] |  | < 0.01 |  |  |  |  | 
CC(=O)O[C@H]1C(=O)[C@@]2(C)[C@H]([C@H](OC(=O)c3ccccc3)[C@]3(O)C[C@H](OC(=O)[C@H](O)[C@@H](NC(=O)c4ccccc4)c4ccccc4)C(C)=C1C3(C)C)[C@]1(OC(C)=O)CO[C@@H]1C[C@@H]2O [paclitaxel, reference compound] |  | < 0.01 |  |  |  |  | 
COCCN(Cc1ccccc1)S(=O)(=O)c1cc(C(=O)N2CCOCC2)ccc1OC [DNDI0003392126] |  | > 64 | 43.7 |  |  |  | IC50 ([1]; read-out: PMM IC50 (uM)): > 64 µM; IC50 [2, 11]: 44 µM; IC50 [3, 12]: > 64 µM

Structure (SMILES) | IC50 ([1]; read-out: PMM IC50) [µM] | CC50 at 3 days (in vitro) [µM] | IC50 [2, 4] [µM] | IC50 [3, 6] [µM] | IC50 [2, 7] [µM] | IC50 [2, 8] [µM] | also measured
COc1ccc(C)cc1S(=O)(=O)N(CC(=O)N1CCOCC1)Cc1ccccc1 [DNDI0003363393] | > 55.4 | > 55.4 |  | > 55.4 | 19.1 | 18.9 | 
COc1ccccc1S(=O)(=O)N(Cc1ccccc1)Cc1ccccc1 [Compound 10] |  |  |  |  |  |  | IC50 [1, 9]: > 64.6 µM; IC50 [2, 10]: 0.331 µM
COc1ccc(C)cc1S(=O)(=O)N(CC(=O)Nc1ccccc1)Cc1ccccc1 [DNDI0003363395] | > 55.4 | > 55.4 |  | 19.8 | > 49.4 | > 49.4 | 
COc1ccc(Cl)cc1S(=O)(=O)N(CC(=O)N1CCCC1)Cc1ccccc1 [DNDI0003363389] | > 32 | > 32 |  | > 32 | 15.5 | 15.5 | 
COc1ccc(OC)c(S(=O)(=O)N(Cc2ccccc2)C2CCN(C(C)=O)CC2)c1 [DNDI0003366132] | > 64 | > 64 | > 64 | > 64 |  |  | chromatographic logD (physchem; pH 7.4, eLogD, experimental): 3.1; IC50 [2, 5]: > 64 µM
O=S(=O)(c1cc(F)ccc1F)N(Cc1ccc(F)cc1)Cc1ccc(F)cc1 [Compound 12] |  |  |  |  |  |  | IC50 [1, 9]: > 64.6 µM; IC50 [2, 10]: > 64.6 µM
COc1ccc(OC)c(S(=O)(=O)N2CCCC2c2ccc(F)cc2)c1 (stereo not shown) [DNDI0003363388] | > 32 | > 32 |  | 25.6 | 9.55 | 9.59 | 
COCCN(Cc1ccccc1)S(=O)(=O)c1cc(C(=O)N2CCNCC2)ccc1OC [DNDI0003392127] |  | > 64 | 36.3 |  |  |  | IC50 ([1]; read-out: PMM IC50 (uM)): > 64 µM; IC50 [2, 11]: 35.9 µM; IC50 [3, 12]: 13.4 µM
O=S1(=O)c2cc(F)ccc2OCCN1Cc1ccccc1 [DNDI0003368292] | > 64 | > 64 | > 64 | 48.9 |  |  | IC50 [2, 5]: > 64 µM
COc1ccc(C)cc1S(=O)(=O)N(CC(N)=O)Cc1ccccc1 [DNDI0003363397] | > 55.4 | > 55.4 |  | > 55.4 | > 55.4 | > 55.4 | 
O=C(Cn1ccnc1[N+](=O)[O-])NCc1ccccc1 [Benznidazole, reference compound] |  |  |  |  |  |  | IC50 ([3]; MRC5, […], reference drug, T. cruzi, 7 days): 2 to 5 µM
CC(=O)Nc1ccc(Cl)c(C(=O)NC(Cn2ccnc2)c2ccccc2)c1 (stereo not shown) [DNDI0003363391] | > 55.4 | > 55.4 |  | > 55.4 | > 55.4 | > 55.4 | 
CCN(CC)C(=O)CN(Cc1ccccc1)S(=O)(=O)c1ccc(OC)c(OC)c1 [DNDI0003363394] | > 55.4 | > 55.4 |  | > 55.4 | 32.4 | 32.1 | 
COCC1COc2ccc(F)cc2S(=O)(=O)N1Cc1ccccc1 (stereo not shown) [DNDI0003369451] | > 64 | > 64 | > 64 | > 64 |  |  | IC50 [2, 5]: > 64 µM
COCCNc1ccc(S(=O)(=O)N(CCOC)Cc2ccccc2)cc1 [DNDI0003366102] | > 64 | 38.1 | 38.9 | 34.8 |  |  | IC50 [2, 5]: 38.6 µM
COc1ccc(Cl)cc1S(=O)(=O)N(CC(=O)N1CCN(C)CC1)Cc1ccccc1 [DNDI0003363387] | > 32 | > 32 |  | > 32 | > 32 | > 32 | 
